Data as given in patent US10259810B2, “N-sulfonylated pyrazolo[3,4-b]pyridin-6-carboxamides and method of use” (AbbVie S.à.r.l., priority 2015, dated 2019).

What was measured:
[1] = target: T1, ΔF508-CFTR (Homo sapiens, UniProt P13569, DEL508-508); test: CFTR cell surface levels using HRP-tagged ΔF508-CFTR expressing CFBE cells, in the presence of a co-corrector; assay type: cell-based; details: HRP-tagged ΔF508-CFTR CFBE cells, in the presence of 3 μM co-corrector; for EC50: read-out: EC50
T1 construct: host or cells: CFBE41o-, doxycycline-inducible
In short: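 Chemiluminescent read-out of surface HRP (15 min, dark) after PBS washes. Activity is normalized as 100×(sample−DMSO)/(3 μM co-corrector alone−DMSO).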

[2] = target: T1, ΔF508-CFTR; test: CFTR cell surface levels using HRP-tagged ΔF508-CFTR expressing CFBE cells, intrinsic corrector capacity; assay type: cell-based; parameters: % Activation: concentration or dose not given beside the values; details: HRP-tagged ΔF508-CFTR expressing CFBE41o- cells, compound alone (intrinsic corrector capacity), 20 hours at 33° C.; for EC50: read-out: EC50
In short: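 Read-out: chemiluminescent HRP activity of ECL4-HRP-tagged ΔF508-CFTR at the cell surface, 15 min substrate in dark. Normalized as 100×(sample−DMSO)/(positive control−DMSO).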

T1 sequence (P13569 with tags, fused parts or gaps DEL508-508): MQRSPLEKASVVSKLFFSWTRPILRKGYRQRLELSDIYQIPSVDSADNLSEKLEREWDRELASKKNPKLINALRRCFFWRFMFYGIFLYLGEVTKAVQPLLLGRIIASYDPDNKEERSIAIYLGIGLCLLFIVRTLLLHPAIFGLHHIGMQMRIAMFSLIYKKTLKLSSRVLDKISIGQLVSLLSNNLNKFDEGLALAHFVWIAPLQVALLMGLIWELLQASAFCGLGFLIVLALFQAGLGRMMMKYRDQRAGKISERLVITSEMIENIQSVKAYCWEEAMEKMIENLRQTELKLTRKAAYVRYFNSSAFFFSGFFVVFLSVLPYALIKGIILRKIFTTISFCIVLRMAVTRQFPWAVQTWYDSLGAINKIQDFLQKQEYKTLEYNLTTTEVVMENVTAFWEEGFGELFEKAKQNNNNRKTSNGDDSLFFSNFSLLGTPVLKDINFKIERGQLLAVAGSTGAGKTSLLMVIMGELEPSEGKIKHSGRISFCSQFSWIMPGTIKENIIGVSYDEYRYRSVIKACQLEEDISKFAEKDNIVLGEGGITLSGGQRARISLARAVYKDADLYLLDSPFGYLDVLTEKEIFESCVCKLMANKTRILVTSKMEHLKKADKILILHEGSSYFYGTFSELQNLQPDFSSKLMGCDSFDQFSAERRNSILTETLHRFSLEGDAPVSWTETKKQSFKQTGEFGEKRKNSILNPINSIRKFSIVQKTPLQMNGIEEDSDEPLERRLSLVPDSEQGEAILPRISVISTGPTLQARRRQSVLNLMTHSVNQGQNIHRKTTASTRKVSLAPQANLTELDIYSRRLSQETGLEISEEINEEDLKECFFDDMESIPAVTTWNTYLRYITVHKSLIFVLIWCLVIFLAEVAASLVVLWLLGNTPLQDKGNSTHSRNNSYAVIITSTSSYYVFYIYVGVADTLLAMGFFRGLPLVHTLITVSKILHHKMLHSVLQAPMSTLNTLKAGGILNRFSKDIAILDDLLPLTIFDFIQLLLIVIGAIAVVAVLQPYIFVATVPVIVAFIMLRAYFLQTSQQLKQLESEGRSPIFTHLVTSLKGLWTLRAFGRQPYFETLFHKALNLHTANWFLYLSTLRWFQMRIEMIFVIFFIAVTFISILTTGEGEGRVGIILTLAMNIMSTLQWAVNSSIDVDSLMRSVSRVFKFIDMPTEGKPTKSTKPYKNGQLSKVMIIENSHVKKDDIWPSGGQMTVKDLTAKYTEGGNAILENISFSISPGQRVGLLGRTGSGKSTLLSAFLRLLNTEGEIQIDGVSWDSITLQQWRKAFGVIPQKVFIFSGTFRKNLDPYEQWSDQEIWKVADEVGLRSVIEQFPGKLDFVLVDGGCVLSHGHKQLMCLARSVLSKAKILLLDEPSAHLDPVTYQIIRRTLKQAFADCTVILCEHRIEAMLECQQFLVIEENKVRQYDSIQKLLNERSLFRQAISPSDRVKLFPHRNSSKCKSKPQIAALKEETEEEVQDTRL

C#CCCS(=O)(=O)NC(=O)c1cc(N2CCC(N3CCOCC3)CC2)c2c(C3CCC3)nn(-c3ccc(F)cc3)c2n1 [Compound 477, N-(but-3-yne-1-sulfonyl)-3-cyclobutyl-1-(4-fluorophenyl)-4-[4-(morpholin-4-yl)piperidin-1-yl]-1H-pyrazolo[3,4-b]pyridine-6-carboxamide]
% Activation [1]: 536.7%
EC50 [1]: 34.7 nM
% Activation [2]: 341.4%
EC50 [2]: 117 nM

CS(=O)(=O)NC(=O)c1cc(-c2ccc(N3CCC(C#N)CC3)nc2)c2c(C3CC(F)(F)C3)nn(-c3ccccc3)c2n1 [Compound 195, 4-[6-(4-cyanopiperidin-1-yl)pyridin-3-yl]-3-(3,3-difluorocyclobutyl)-N-(methanesulfonyl)-1-phenyl-1H-pyrazolo[3,4-b]pyridine-6-carboxamide]
% Activation [1]: 387.47%
EC50 [1]: 192 nM
% Activation [2]: 225.2%
EC50 [2]: 370 nM

CN(C)S(=O)(=O)NC(=O)c1cc(CN2CCOCC2)c2c(C3CCC3)nn(-c3ccc(F)cc3)c2n1 [Compound 520, 3-cyclobutyl-N-(dimethylsulfamoyl)-1-(4-fluorophenyl)-4-[(morpholin-4-yl)methyl]-1H-pyrazolo[3,4-b]pyridine-6-carboxamide]
% Activation [1]: 207.1%
EC50 [1]: 924 nM
% Activation [2]: 60%
EC50 [2]: 1060 nM

CS(=O)(=O)NC(=O)c1cc(OC[C@H](F)C2CCOCC2)c2c(C3CCC3)nn(-c3ccccc3)c2n1 [Compound 237, 3-cyclobutyl-4-[(2R)-2-fluoro-2-(oxan-4-yl)ethoxy]-N-(methanesulfonyl)-1-phenyl-1H-pyrazolo[3,4-b]pyridine-6-carboxamide]
% Activation [1]: 264.05%
EC50 [1]: 222 nM
% Activation [2]: 120%
EC50 [2]: 453 nM

CC(=O)NCCS(=O)(=O)NC(=O)c1cc(N2CCC(N3CCOCC3)CC2)c2c(C3CCC3)nn(-c3ccc(F)cc3)c2n1 [Compound 574, N-(2-acetamidoethanesulfonyl)-3-cyclobutyl-1-(4-fluorophenyl)-4-[4-(morpholin-4-yl)piperidin-1-yl]-1H-pyrazolo[3,4-b]pyridine-6-carboxamide]
% Activation [1]: 283.3%
EC50 [1]: 542 nM
% Activation [2]: 129.9%
EC50 [2]: 2760 nM

CS(=O)(=O)NC(=O)c1cc(C2CCN(CCC(F)(F)F)CC2)c2c(C3CCC3)nn(-c3ccc(F)cc3)c2n1 [Compound 603, 3-cyclobutyl-1-(4-fluorophenyl)-N-(methanesulfonyl)-4-[1-(3,3,3-trifluoropropyl)piperidin-4-yl]-1H-pyrazolo[3,4-b]pyridine-6-carboxamide]
% Activation [1]: 344.65%
EC50 [1]: 156 nM
% Activation [2]: 136.2%
EC50 [2]: 283 nM

CC(C)Oc1nn(C2CCCCC2)c2nc(C(=O)NS(C)(=O)=O)cc(-c3ccc(C(=O)N4CC5CNCC5C4)cc3)c12 (centres unmarked) [Compound 631, 1-cyclohexyl-4-[4-(hexahydropyrrolo[3,4-c]pyrrole-2(1H)-carbonyl)phenyl]-N-(methanesulfonyl)-3-[(propan-2-yl)oxy]-1H-pyrazolo[3,4-b]pyridine-6-carboxamide]
% Activation [1]: 352.63%
EC50 [1]: 2990 nM
% Activation [2]: 122.53%
EC50 [2]: 3340 nM

CO[C@H]1CC[C@@H](Oc2cc(C(=O)NS(C)(=O)=O)nc3c2c(C2CCC2)nn3-c2ccccc2)CC1 [Compound 211, 3-cyclobutyl-N-(methanesulfonyl)-4-[(cis-4-methoxycyclohexyl)oxy]-1-phenyl-1H-pyrazolo[3,4-b]pyridine-6-carboxamide]
% Activation [1]: 288.3%
EC50 [1]: 293 nM
% Activation [2]: 114.4%
EC50 [2]: 608 nM

Cc1nn(-c2cccc(C(F)(F)F)c2)c2nc(C(=O)NS(C)(=O)=O)cc(-c3ccc(N4CCOCC4)cc3)c12 [Compound 8, N-(methanesulfonyl)-3-methyl-4-[4-(morpholin-4-yl)phenyl]-1-[3-(trifluoromethyl)phenyl]-1H-pyrazolo[3,4-b]pyridine-6-carboxamide]
% Activation [1]: 441.85%
EC50 [1]: 854 nM
% Activation [2]: 270.6%
EC50 [2]: 900 nM

COCCN(C)c1ccc(-c2cc(C(=O)NS(C)(=O)=O)nc3c2c(C(C)C)nn3-c2cccc(N(C)C)c2)cn1 [Compound 84, 1-[3-(dimethylamino)phenyl]-N-(methanesulfonyl)-4-{6-[(2-methoxyethyl)(methyl)amino]pyridin-3-yl}-3-(propan-2-yl)-1H-pyrazolo[3,4-b]pyridine-6-carboxamide]
% Activation [1]: 468.2%
EC50 [1]: 408 nM
% Activation [2]: 311.7%
EC50 [2]: 660 nM

COC[C@H]1CCCN1C1CCN(S(=O)(=O)NC(=O)c2cc(N3CCC(CN4CCCC4)CC3)c3c(C4CCC4)nn(-c4ccccc4)c3n2)CC1 [Compound 458, 3-cyclobutyl-N-{4-[(2R)-2-(methoxymethyl)pyrrolidin-1-yl]piperidine-1-sulfonyl}-1-phenyl-4-{4-[(pyrrolidin-1-yl)methyl]piperidin-1-yl}-1H-pyrazolo[3,4-b]pyridine-6-carboxamide]
% Activation [1]: 282.8%
EC50 [1]: 920 nM
% Activation [2]: 124.4%
EC50 [2]: 794 nM

CC1(S(=O)(=O)NC(=O)c2cc(N3CCC(N4CCN(C5CC5)CC4)CC3)c3c(C4CCC4)nn(-c4ccccc4)c3n2)CC1 [Compound 557, 3-cyclobutyl-4-[4-(4-cyclopropylpiperazin-1-yl)piperidin-1-yl]-N-(1-methylcyclopropane-1-sulfonyl)-1-phenyl-1H-pyrazolo[3,4-b]pyridine-6-carboxamide]
% Activation [1]: 474.4%
EC50 [1]: 116 nM
% Activation [2]: 248.5%
EC50 [2]: 252 nM

CCS(=O)(=O)NC(=O)c1cc(-c2cnc(N(C)C)nc2)c2c(C(C)C)nn(-c3cccc(N(C)C)c3)c2n1 [Compound 78, 1-[3-(dimethylamino)phenyl]-4-[2-(dimethylamino)pyrimidin-5-yl]-N-(ethanesulfonyl)-3-(propan-2-yl)-1H-pyrazolo[3,4-b]pyridine-6-carboxamide]
% Activation [1]: 520.7%
EC50 [1]: 660 nM
% Activation [2]: 333.2%
EC50 [2]: 1880 nM

CC1(C)CC(c2nn(-c3ccccc3)c3nc(C(=O)NS(C)(=O)=O)cc(-c4ccc(N5CCC(C#N)CC5)nc4)c23)C1 [Compound 196, 4-[6-(4-cyanopiperidin-1-yl)pyridin-3-yl]-3-(3,3-dimethylcyclobutyl)-N-(methanesulfonyl)-1-phenyl-1H-pyrazolo[3,4-b]pyridine-6-carboxamide]
% Activation [1]: 387.1%
EC50 [1]: 231 nM
% Activation [2]: 188.47%
EC50 [2]: 339 nM

CCS(=O)(=O)NC(=O)c1cc(N2CCC(N3CCOCC3)CC2)c2c(C3CCC3)nn(-c3ccccc3)c2n1 [Compound 437, 3-cyclobutyl-N-(ethanesulfonyl)-4-[4-(morpholin-4-yl)piperidin-1-yl]-1-phenyl-1H-pyrazolo[3,4-b]pyridine-6-carboxamide]
% Activation [1]: 563.64%
% Activation [2]: 353.8%

Cc1cc(-n2nc(C3CCC3)c3c(N4CCC(N5CCOCC5)CC4)cc(C(=O)NS(=O)(=O)N(C)C)nc32)ccc1F [Compound 511, 3-cyclobutyl-N-(dimethylsulfamoyl)-1-(4-fluoro-3-methylphenyl)-4-[4-(morpholin-4-yl)piperidin-1-yl]-1H-pyrazolo[3,4-b]pyridine-6-carboxamide]
% Activation [1]: 432.95%
EC50 [1]: 78.9 nM
% Activation [2]: 248.55%
EC50 [2]: 88.3 nM
